What was measured:
[1] = biological target: T1, Recombinant STAT3 protein (STAT3(G127-I722)) (Homo sapiens, UniProt P40763); experiment: STAT3 Fluorescence Polarization (FP) Assay; format: binding; details: STAT3(G127-I722) 25 nM, probe 5-FAM-GpYLPQTV-NH2 2 nM, 45-minute incubation
T1 construct: STAT3(G127-I722)
Summary of the method: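 STAT3(G127-I722) at 25 nM and 5-FAM-GpYLPQTV-NH2 probe at 2 nM in HEPES pH 7.4 buffer with NaCl, EDTA, Tween 20, DTT; 1% DMSO. FP read after 45 min at room temperature; IC50 by nonlinear regression of mP vs log concentration, binned A ≤100 nM to D >10 μM.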

[2] = biological target: T2, Recombinant STAT6 protein (STAT6(W123-T658)) (Homo sapiens, UniProt P42226); experiment: STAT6 Fluorescence Polarization (FP) Assay; format: binding; details: STAT6(W123-T658) 250 nM, probe 5-FAM-ApYKPFQDLI-NH2 2 nM, 45-minute incubation
T2 construct: STAT6(W123-T658)
T2 sequence (P42226 123-658): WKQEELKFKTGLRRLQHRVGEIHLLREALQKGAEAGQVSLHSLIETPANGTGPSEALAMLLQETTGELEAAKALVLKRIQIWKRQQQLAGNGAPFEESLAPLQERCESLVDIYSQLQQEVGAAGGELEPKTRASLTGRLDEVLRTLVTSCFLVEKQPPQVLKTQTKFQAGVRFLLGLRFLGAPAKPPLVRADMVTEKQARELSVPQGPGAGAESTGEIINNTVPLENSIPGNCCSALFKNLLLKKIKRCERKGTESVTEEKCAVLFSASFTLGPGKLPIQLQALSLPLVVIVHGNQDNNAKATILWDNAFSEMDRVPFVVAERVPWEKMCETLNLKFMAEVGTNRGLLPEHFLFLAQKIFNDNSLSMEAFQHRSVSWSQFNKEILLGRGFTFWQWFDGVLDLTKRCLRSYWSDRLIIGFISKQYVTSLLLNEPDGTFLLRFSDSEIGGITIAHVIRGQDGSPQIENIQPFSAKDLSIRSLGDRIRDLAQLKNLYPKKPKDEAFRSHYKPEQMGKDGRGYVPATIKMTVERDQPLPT
Summary of the method: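 STAT6 (W123-T658) at 250 nM mixed with 2 nM 5-FAM-ApYKPFQDLI-NH2 probe in HEPES pH 7.4 buffer with DTT and Tween 20, 1% DMSO final. Polarization read after 45 min at room temperature; IC50 by nonlinear regression of mP versus log concentration, reported in bins A–D.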

T1 sequence (P40763 127-722, species assumed): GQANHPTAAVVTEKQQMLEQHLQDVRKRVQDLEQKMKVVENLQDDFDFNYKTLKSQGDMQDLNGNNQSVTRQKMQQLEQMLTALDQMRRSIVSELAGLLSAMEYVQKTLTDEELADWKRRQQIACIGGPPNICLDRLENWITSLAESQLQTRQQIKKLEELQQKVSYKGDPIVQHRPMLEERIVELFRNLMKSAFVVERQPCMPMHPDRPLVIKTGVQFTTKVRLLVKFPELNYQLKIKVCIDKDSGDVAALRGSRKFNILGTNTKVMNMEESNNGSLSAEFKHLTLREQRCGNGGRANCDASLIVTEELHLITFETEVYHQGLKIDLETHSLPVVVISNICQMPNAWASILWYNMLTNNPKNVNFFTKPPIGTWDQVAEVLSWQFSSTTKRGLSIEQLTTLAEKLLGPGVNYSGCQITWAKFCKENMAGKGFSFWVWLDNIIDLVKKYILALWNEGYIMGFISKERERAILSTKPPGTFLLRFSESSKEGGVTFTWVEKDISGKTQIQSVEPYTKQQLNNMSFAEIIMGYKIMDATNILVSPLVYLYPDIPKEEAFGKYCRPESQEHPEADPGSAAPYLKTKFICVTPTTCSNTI

Structure (SMILES) | IC50 [1] [µM] | IC50 [2] [µM]
NC(=O)Cc1cc(-c2ccccc2)ccc1NC(=O)[C@@H]1CC[C@@H]2C[C@H]3C[C@H]3C[C@H](NC(=O)c3cc4cc(C(F)(F)P(=O)(O)O)ccc4s3)C(=O)N21 [Compound 26, ((2-(((3S,6S,7aS,8aR,9aR)-3-((3-(2-amino-2-oxoethyl)-[1,1′-biphenyl]-4-yl)carbamoyl)-5-oxodecahydro-1H-cyclopropa[d]pyrrolo[1,2-a]azocin-6-yl)carbamoyl)benzo[b]thiophen-5-yl)difluoromethyl)phosphonic acid] | < 0.1 | 0.3 to 3
O=C(N[C@H]1C[C@H]2[C@@H](C[C@H]3CC[C@@H](C(=O)N4CC(c5cccnc5)C4)N3C1=O)C2(F)F)c1cc2cc(C(F)(F)P(=O)(O)O)ccc2s1 [Compound 31, ((2-(((3S,6S,7aS,8aR,9aR)-8,8-difluoro-5-oxo-3-(3-(pyridin-3-yl)azetidine-1-carbonyl)decahydro-1H-cyclopropa[d]pyrrolo[1,2-a]azocin-6-yl)carbamoyl)benzo[b]thiophen-5-yl)difluoromethyl)phosphonic acid] | < 0.1 | 3 to 30
O=C(N[C@H]1C[C@@H]2C[C@@H]2C[C@H]2CC[C@@H](C(=O)Nc3ccc(-c4ccccc4)cc3)N2C1=O)c1cc2cc(C(F)(F)P(=O)(O)O)ccc2s1 [Compound 32, ((2-(((3S,6S,7aS,8aR,9aR)-3-([1,1′-biphenyl]-4-ylcarbamoyl)-5-oxodecahydro-1H-cyclopropa[d]pyrrolo[1,2-a]azocin-6-yl)carbamoyl)benzo[b]thiophen-5-yl)difluoromethyl)phosphonic acid] | < 0.1 | 0.3 to 3
CC(c1ccc2sc(C(=O)N[C@H]3C[C@@H]4C[C@@H]4C[C@H]4CC[C@@H](C(=O)N5CC(C(=O)N6CCOCC6)C5)N4C3=O)cc2c1)P(=O)(O)O (stereo partly drawn) [Compound 35, (1-(2-(((3S,6S,7aS,8aR,9aR)-3-(3-(morpholine-4-carbonyl)azetidine-1-carbonyl)-5-oxodecahydro-1H-cyclopropa[d]pyrrolo[1,2-a]azocin-6-yl)carbamoyl)benzo[b]thiophen-5-yl)ethyl)phosphonic acid] | 0.1 to 1 | > 30
O=C(N[C@H]1C[C@@H]2C[C@@H]2C[C@H]2CC[C@@H](C(=O)N3CC(c4cccnc4)C3)N2C1=O)c1cc2cc(C(F)(F)P(=O)(O)O)ccc2s1 [Compound 36, (difluoro(2-(((3S,6S,7aS,8aR,9aR)-5-oxo-3-(3-(pyridin-3-yl)azetidine-1-carbonyl)decahydro-1H-cyclopropa[d]pyrrolo[1,2-a]azocin-6-yl)carbamoyl)benzo[b]thiophen-5-yl)methyl)phosphonic acid] | < 0.1 | 0.3 to 3

The remaining lines, values ahead:

IC50 [1] [µM] | IC50 [2] [µM] | Structure (SMILES)
0.1 to 1 | 3 to 30 | COC1(c2nccn2C)CN(C(=O)[C@@H]2CC[C@@H]3C[C@@H]4[C@H](C[C@H](NC(=O)c5cc6cc(C(F)(F)P(=O)(O)O)ccc6s5)C(=O)N32)C4(F)F)C1 [Compound 29, ((2-(((3S,6S,7aS,8aR,9aR)-8,8-difluoro-3-(3-methoxy-3-(1-methyl-1H-imidazol-2-yl)azetidine-1-carbonyl)-5-oxodecahydro-1H-cyclopropa[d]pyrrolo[1,2-a]azocin-6-yl)carbamoyl)benzo[b]thiophen-5-yl)difluoromethyl)phosphonic acid]
< 0.1 | 3 to 30 | O=C(N[C@H]1C[C@H]2[C@@H](C[C@H]3CC[C@@H](C(=O)N4CC(C(=O)N5CCOCC5)C4)N3C1=O)C2(F)F)c1cc2cc(C(F)(F)P(=O)(O)O)ccc2s1 [Compound 30, ((2-(((3S,6S,7aS,8aR,9aR)-8,8-difluoro-3-(3-(morpholine-4-carbonyl)azetidine-1-carbonyl)-5-oxodecahydro-1H-cyclopropa[d]pyrrolo[1,2-a]azocin-6-yl)carbamoyl)benzo[b]thiophen-5-yl)difluoromethyl)phosphonic acid]
